Source: patent publication US20230104487A1, “11-(4-CHLOROPHENYL)-4-(2,3-DIHYDRO-1H-INDOLE-1-CARBONYL)-3,11-DIMETHYL-5,10,DIOXATRICYCLO[7.4.0.0,2,6,]TRIDECA-1,3,6,8-TETRAEN-13-ONE AND DERIVATIVES AS DESTABILIZER OF CRY1 FOR THE TREATMENT OF CIRCADIAN RHYTHM ASSOCIATED DISEASES AND DISORDERS” (KOC UNIVERSITESI, priority 2019, published 2023)
Where two headings read alike, the source gives them in different places.

Tests used:
[1] = Plasma pharmacokinetics in mice; type: in vivo, mouse
Protocol: C57BL/6J female mice (n=4 per each time point) were treated with 100 mg/kg single dose of FORMULA I intraperitoneally. Blood samples were collected 0, 0.5, 1, 2, 4, 8, 12 and 24 h after administration of FORMULA I by cardiac puncture under isoflurane anesthesia. Plasma was obtained by centrifugation from heparinized tubes and stored at −80° C. until analysis. Brain tissues were quickly removed and stored at −80° C. for further processing. For assessment of the brain exposure of FORMULA I, levels in this tissue were only determined at 2nd (n=2) and 4th (n=2) hours according to maximum concentrations of the molecule in plasma.
Liquid chromatography coupled to tandem mass spectrometry (LC-MS/MS) was used to obtain high mass accuracy data of the analytes in plasma samples for the determination of FORMULA I and Internal standard (IS) Loratadine. The instrument was operated in full scan mode and ion source parameters were optimised for the analytes. The optimized conditions of the electrospray ionization (ESI) source were as follows: gas temperature, 300° C.; gas flow, 10 L/min; nebulizer pressure, 25 psi; capillary voltage, 5500 V. ESI in the positive ion mode provides the best results for FORMULA I. For MS-MS detection, the protonated molecules were selected as precursor ions and the most abundant fragment ions obtained at collision energy of 22-20 eV were monitored as the product ions for FORMULA I and IS. MS-MS analysis was performed in the selected reaction monitoring (SRM) positive ionization mode, using mass transitions for FORMULA I m/z 472.1→353.4 [collision energy (CE)=22 eV] and Fragmentor 234 V, for IS; m/z 383.2→337.2 (CE=20 eV) and fragmentor 140 V. For the separation of the analytes, a conventional reversed-phase LC separation on C18-bonded silica was used, with Methanol: % 0.1 Formic acid (90:10, v/v) mobile phase. FORMULA I was extracted from plasma samples by using liquid-liquid extraction with Methanol. 10 μL of sample was injected into the LC-MS/MS system.
Peak plasma concentration (Cmax) and time to reach peak plasma concentration (tmax) values were directly obtained from the FORMULA I plasma concentration-time curve. The area under the plasma concentration-time curve from […] was calculated by the trapezoidal method. AUC0-∞ was obtained by addition of the extrapolated part after the last sampling time using standard techniques. Other pharmacokinetic parameters of FORMULA I were calculated by the non-compartmental method. Elimination rate constant (kel) was calculated from the terminal points of FORMULA I plasma concentration-time plot and the slope of this line was equal to kel. Terminal elimination half-life (t½) was calculated by ln-linear approximation of terminal points of the data. t½ and kel were interconverted with the following formula: t1/2=ln 2/kel

U2-OS cells = assay: Cell cytotoxicity test (MTT); type: cell-based, human; settings: dose dependent
Protocol: Human osteosarcoma U2-OS cell lines were used for the cytotoxicity assay. Cells were seeded in triplicate to clear 96-well plates with 4000 cells/well then grown for 48 h. Cells were treated with molecules at desired concentrations (final DMSO concentration 0.5%) in DMEM. Cells were incubated with molecules for 48 h. Cell viability was measured by adding tetrazolium dye 3-[4,5-dimethylthiazol-2-yl]-2,5 diphenyl tetrazolium bromide (MTT) which is converted to insoluble purple color formazan as a result of the mitochondrial activity. To measure the purple color after incubating cells with MTT reagent medium was replaced with DMSO:EtOH (50:50) mixture for 4 hours and absorbance of wells were measured at 570 nm by the spectrophotometer. Cells treated with 5% final DMSO concentration (known as toxic to cells) as […] controls.
Initially, toxicity of selected molecules was assessed by MTT using immortalized human osteosarcoma (U2-OS) cells at concentrations of 20 μM, 10 μM and, 2.5 μM. Molecules with relative cell viability less than 90% at 2.5 μM were eliminated. […] In this assay the effect of the 14 molecules were measured according to the CRYL::LUC decay rate. […] Then cells were treated with cycloheximide (CHX) to inhibit the protein synthesis and bioluminescence was recorded for 18 h. […]

C57BL/6J mice = assay: Repeated dose toxicity study, 14-day subacute toxicity; type: in vivo; settings: 60 mg/kg i.p. for 14 days
Protocol: According to the results of the 5-day maximum tolerated dose determination study, FORMULA I dose was determined as 60 mg/kg for the next 14-day subacute toxicity study. In this study, C57BL/6J mice (n=10) were treated with 60 mg/kg dose of FORMULA I intraperitoneally for 14 days. Control mice (n=5) were only treated with vehicle. Following this, aforementioned procedure (5-day maximum tolerated dose determination study) has been conducted in the same way.

[2] = female, C57BL/6J, mouse, ip, 100 mg/kg, single dose, plasma

Cc1c(C(=O)N2CCc3ccccc32)oc2ccc3c(c12)C(=O)CC(C)(c1ccc(Cl)cc1)O3 (stereo not drawn) [FORMULA I, 11-(4-chlorophenyl)-4-(2,3-dihydro-1H-indole-1-carbonyl)-3,11-dimethyl-5,10,dioxatricyclo[7.4.0.0,2,6,]trideca-1,3,6,8-tetraen-13-one]
time plasma level first detected ([1]; 100 mg/kg, single dose, i.p.): 0.5 h
time plasma level still quantifiable ([1]; 100 mg/kg, single dose, i.p.): 24 h
kel ([1]; 100 mg/kg, single dose, i.p., plasma): 0.127 ± 0.01 h⁻¹
AUC(0-inf) [1, 2]: 5190 ± 3130 ng·h/mL
Cmax [1, 2]: 1150 ± 506 ng/mL
Tmax [1, 2]: 2 to 4 h
half-life ([1]; female, C57BL/6J, mouse, plasma, intraperitoneal, 100 mg/kg, in vivo, mice, read-out: half-life in blood (converted)): 6 h
half-life ([1]; female, C57BL/6J, mouse, plasma, ip, 100 mg/kg, single dose, i.p., plasma, read-out: t1/2 (converted)): 5.5 ± 0.33 h
half-life in blood ([1]; in vivo, mice): ~6 h
toxicity on U2-OS cells (U2-OS cells): no effect on the stability of LUC and any toxic effect
body temperature (mild hypothermia) (C57BL/6J mice; during injections): 33.7-35.4 °C
highest mean body weight loss (C57BL/6J mice; first day following administration): 3.7%
